Assays:
Assay type in all cases: in vivo
Amaranthus retroflexus [1] = assay: Post-emergence herbicidal efficacy at 320 g/ha, AMARE; conditions: rated visually after about 3 weeks vs untreated controls, 100% = plants have died
Excerpt: (§1) Unwanted plants/weeds: • ABUTH: Abutilon theophrasti • ALOMY: Alopecurus myosuroides • AMARE: Amaranthus retroflexus • DIGSA: Digitaria sanguinalis • ECHCG: Echinochloa crus-galli • KCHSC: Kochia scoparia • LOLRI: Lolium rigidum • MATIN: Matricaria inodora • POAAN: Poa annua • POLCO: Polygonum convolvulus • SETVI: Setaria viridis • STEME: Stellaria media • VERPE: Veronica persica • VIOTR: Viola tricolor A. Post-Emergence Herbicidal Efficacy at 320 g/ha
(§2) Seeds of mono- and dicotyledonous weed plants were placed in plastic pots in sandy loam soil (doubly sown with in each case one species of mono- or dicotyledonous weed plants per pot), covered with soil and cultivated in a greenhouse under controlled growth conditions. 2 to 3 weeks after sowing, the test plants were treated at the one-leaf stage. The compounds of the invention, formulated in the form of wettable powders (WP) or as emulsion concentrates (EC), were applied to the green parts of the plants as aqueous suspension or emulsion with addition of 0.5% additive at a water application rate equivalent to 600 litres per hectare. After the test plants had been kept in the greenhouse under optimum growth conditions for about 3 weeks, the activity of the preparations was rated visually in comparison to untreated controls.
(§3) For example, 100% activity=the plants have died, 0% activity=like control plants.
(§4) Tables A1 to A10 below show the effects of selected compounds of the general formula (I) according to Table 1 on various harmful plants and at an application rate corresponding to 320 g/ha, which were obtained by the trial procedure specified above.

Abutilon theophrasti = assay: Post-emergence herbicidal efficacy at 320 g/ha, ABUTH; conditions: rated visually after about 3 weeks vs untreated controls, 100% = plants have died
Excerpt: as §1, §2, §3, §4

Veronica persica [2] = assay: Pre-emergence herbicide efficacy at 320 g/ha, VERPE; conditions: scored visually after about 3 weeks vs untreated controls, 100% = plants have died
Excerpt: as §1
(§5) Seeds of mono- and dicotyledonous weed plants were placed in plastic pots in sandy loam soil (doubly sown with one species each of mono- or dicotyledonous weed plants per pot) and covered with soil. The compounds of the invention, formulated in the form of wettable powders (WP) or as emulsion concentrates (EC), were then applied to the surface of the covering soil as aqueous suspension or emulsion with addition of 0.5% additive at a water application rate of 600 litres per hectare (converted). After the treatment, the pots were placed in a greenhouse and kept under good growth conditions for the test plants. After about 3 weeks, the efficacy of the preparations was scored visually in comparison with untreated controls as percentages.
as §3
(§6) Tables C1 to C12 below show the effects of selected compounds of the general formula (I) according to Table 1 on various harmful plants and at an application rate corresponding to 320 g/ha, which were obtained by the trial procedure specified above.

Kochia scoparia [3] = assay: Pre-emergence herbicide efficacy at 320 g/ha, KCHSC; conditions: scored visually after about 3 weeks vs untreated controls, 100% = plants have died
Excerpt: as §1, §5, §3, §6

Digitaria sanguinalis [4] = assay: Pre-emergence herbicide efficacy at 320 g/ha, DIGSA; conditions: scored visually after about 3 weeks vs untreated controls, 100% = plants have died
Excerpt: as §1, §5, §3, §6

Amaranthus retroflexus [5] = assay: Pre-emergence herbicide efficacy at 320 g/ha, AMARE; conditions: scored visually after about 3 weeks vs untreated controls, 100% = plants have died
Excerpt: as §1, §5, §3, §6

Kochia scoparia [6] = assay: Post-emergence herbicidal efficacy at 320 g/ha, KCHSC; conditions: rated visually after about 3 weeks vs untreated controls, 100% = plants have died
Excerpt: as §1, §2, §3, §4

Stellaria media [7] = assay: Post-emergence herbicidal efficacy at 320 g/ha, STEME; conditions: rated visually after about 3 weeks vs untreated controls, 100% = plants have died
Excerpt: as §1, §2, §3, §4

Veronica persica [8] = assay: Post-emergence herbicidal efficacy at 320 g/ha, VERPE; conditions: rated visually after about 3 weeks vs untreated controls, 100% = plants have died
Excerpt: as §1, §2, §3, §4

Setaria viridis [9] = assay: Post-emergence herbicidal efficacy at 320 g/ha, SETVI; conditions: rated visually after about 3 weeks vs untreated controls, 100% = plants have died
Excerpt: as §1, §2, §3, §4

Echinochloa crus-galli [10] = assay: Post-emergence herbicidal efficacy at 320 g/ha, ECHCG; conditions: rated visually after about 3 weeks vs untreated controls, 100% = plants have died
Excerpt: as §1, §2, §3, §4

Setaria viridis [11] = assay: Pre-emergence herbicide efficacy at 320 g/ha, SETVI; conditions: scored visually after about 3 weeks vs untreated controls, 100% = plants have died
Excerpt: as §1, §5, §3, §6

Echinochloa crus-galli [12] = assay: Pre-emergence herbicide efficacy at 320 g/ha, ECHCG; conditions: scored visually after about 3 weeks vs untreated controls, 100% = plants have died
Excerpt: as §1, §5, §3, §6

Poa annua [13] = assay: Pre-emergence herbicide efficacy at 320 g/ha, POAAN; conditions: scored visually after about 3 weeks vs untreated controls, 100% = plants have died
Excerpt: as §1, §5, §3, §6

Stellaria media [14] = assay: Pre-emergence herbicide efficacy at 320 g/ha, STEME; conditions: scored visually after about 3 weeks vs untreated controls, 100% = plants have died
Excerpt: as §1, §5, §3, §6

Digitaria sanguinalis [15] = assay: Post-emergence herbicidal efficacy at 320 g/ha, DIGSA; conditions: rated visually after about 3 weeks vs untreated controls, 100% = plants have died
Excerpt: as §1, §2, §3, §4

Matricaria inodora = assay: Pre-emergence herbicide efficacy at 320 g/ha, MATIN; conditions: scored visually after about 3 weeks vs untreated controls, 100% = plants have died
Excerpt: as §1, §5, §3, §6

Poa annua [16] = assay: Post-emergence herbicidal efficacy at 320 g/ha, POAAN; conditions: rated visually after about 3 weeks vs untreated controls, 100% = plants have died
Excerpt: as §1, §2, §3, §4

Structure (SMILES)	Post-emergence efficacy at 320 g/ha against AMARE in % (Amaranthus retroflexus [1]) [%]	Post-emergence efficacy at 320 g/ha against ABUTH in % (Abutilon theophrasti) [%]	Pre-emergence efficacy at 320 g/ha against VERPE in % (Veronica persica [2]) [%]	Pre-emergence efficacy at 320 g/ha against KCHSC in % (Kochia scoparia [3]) [%]	Pre-emergence efficacy at 320 g/ha against DIGSA in % (Digitaria sanguinalis [4]) [%]	Pre-emergence efficacy at 320 g/ha against AMARE in % (Amaranthus retroflexus [5]) [%]	Post-emergence efficacy at 320 g/ha against KCHSC in % (Kochia scoparia [6]) [%]	Post-emergence efficacy at 320 g/ha against STEME in % (Stellaria media [7]) [%]	Post-emergence efficacy at 320 g/ha against VERPE in % (Veronica persica [8]) [%]	Post-emergence efficacy at 320 g/ha against SETVI in % (Setaria viridis [9]) [%]	Post-emergence efficacy at 320 g/ha against ECHCG in % (Echinochloa crus-galli [10]) [%]	Pre-emergence efficacy at 320 g/ha against SETVI in % (Setaria viridis [11]) [%]	Pre-emergence efficacy at 320 g/ha against ECHCG in % (Echinochloa crus-galli [12]) [%]	Pre-emergence efficacy at 320 g/ha against POAAN in % (Poa annua [13]) [%]	Pre-emergence efficacy at 320 g/ha against STEME in % (Stellaria media [14]) [%]	Post-emergence efficacy at 320 g/ha against DIGSA in % (Digitaria sanguinalis [15]) [%]	Pre-emergence efficacy at 320 g/ha against MATIN in % (Matricaria inodora) [%]	Post-emergence efficacy at 320 g/ha against POAAN in % (Poa annua [16]) [%]
COCc1cnn(-c2c(C#N)cccc2Nc2ncc(Cl)cn2)c1 [Example 1-68]	100	90	90	100	100	100	100	100	100	90								
Fc1cccc(Nc2ncc(Cl)cn2)c1-n1cc(C(F)(F)F)cn1 [Example 1-47]	90	90	100		90	100		90	90	90	90	100	100	100	90	90		
N#Cc1cnc(Nc2cccc(C#N)c2-n2cc(C(F)(F)F)cn2)nc1 [Example 1-42]	100			90	100	90	90		90			90			90		100	
N#Cc1cccc(Nc2ncc(Cl)cn2)c1Cc1ccc(F)cc1 [Example 1-23]	100		90		90	100		100	100			100		100	90		100	100

From US20250311727A1, “SUBSTITUTED 2-AMINOAZINES AND SALTS THEREOF, AND USE THEREOF AS HERBICIDAL ACTIVE SUBSTANCES” (BAYER AKTIENGESELLSCHAFT, priority 2022, published 2025)
